Assay results taken from patent US12306194B2, “Reagent for fluorescence imaging of lipid droplets in cell and tissue” (NATIONAL UNIVERSITY CORPORATION GUNMA UNIVERSITY, priority 2019, dated 2025).

How the values were obtained:
[1] = Measurement of maximum absorption wavelength, maximum fluorescence wavelength and fluorescence quantum yield in solvents; assay type: physicochemical
Protocol: Using a luminescent quantum yield measurement apparatus ([…]-01, manufactured by Hamamatsu Photonics K.K.), the maximum absorption wavelength (λabs/nm), the maximum fluorescence wavelength (λflu/nm), and the fluorescence quantum yield (Φf) of the compound in each solvent were measured. The absorption spectrum was measured using an ultraviolet and visible spectrophotometer (Ubest-550, manufactured by JASCO Corporation), and the fluorescence emission spectrum was measured using a fluorescence spectrophotometer (F-7000, manufactured by Hitachi, Ltd.)

[2] = Measurement of fluorescence lifetime in solvents; assay type: physicochemical
Protocol: The fluorescence lifetime (τf) of each compound in each solvent was measured using a compact fluorescence lifetime measurement apparatus (Quntaurus-Tau, manufactured by Hamamatsu Photonics K.K.).

[3] = test system: lipid droplets in HeLa cells; assay: Fluorescence imaging of lipid droplets in oleic acid-treated HeLa cells; assay type: cell-based
Description: Since LipiDye requires use of an excitation wavelength of about 405 nm, there is a concern about phototoxicity to cells in cases of long observation.

[4] = test system: 3T3-L1 cells (adipocytes); assay: Intracellular photostability under excitation light in 3T3-L1 cells; assay type: cell-based; settings: summary grade, Table 3
Protocol: (§1) Using a fluorescence microscope (IX71, manufactured by Olympus Corporation), fluorescence imaging images of cells were acquired over time, and the photostability (It/I0) and the retention property were measured.
The photostability and the retention property are important factors in long-term measurement for, for example, tracing the processes of formation, fusion, and degradation of lipid droplets. Each fluorescent reagent was added to 3T3-L1 cells (adipocytes) to a final concentration of 100 nM, and the cells were cultured for 30 minutes. After washing the cells, the cells were irradiated with an excitation light required for imaging (450 to 500 nm; for LipiDye, an excitation wavelength of 400 to 440 nm), to evaluate the photostability. By regarding the time immediately after the irradiation as Second 0, imaging images were acquired at 20-second intervals for analysis of the image intensity.

[5] = test system: 3T3-L1 cells (adipocytes); assay: Intracellular retention property in 3T3-L1 cells; assay type: cell-based
Protocol: as §1
For evaluation of the intracellular retention property of each reagent, each fluorescent reagent was added to 3T3-L1 cells (adipocytes) to a final concentration of 100 nM (for Lipi-Green, 500 nM), and imaging images were acquired after 30 minutes of culture and 24 hours after washing away of the reagent.

[6] = 100 nM (Lipi-Green 500 nM), 3T3-L1 cells, 24 hours after washing away of the reagent

Row | Compound | Φf (fluorescence quantum yield) ([1]; in Bu2O (dibutyl ether)) | λmax abs (maximum absorption wavelength) ([1]; in Bu2O (dibutyl ether)) | λmax flu (maximum fluorescence wavelength) ([1]; in Bu2O (dibutyl ether)) | Φf (fluorescence quantum yield) ([1]; in MeCN) | λmax abs (maximum absorption wavelength) ([1]; in MeCN) | λmax flu (maximum fluorescence wavelength) ([1]; in MeCN) | τf (fluorescence lifetime) ([2]; in Bu2O (dibutyl ether)) | τf (fluorescence lifetime) ([2]; in MeCN) | imaging of lipid droplets / lipid droplet selectivity in HeLa cells ([3]; 100 nM reagent, 30 minutes, 400 μM oleic acid 48 hours) | fluorescence intensity of HeLa cells ([3]; 100 nM reagent, 30 minutes, compared with BODIPY493/503 or Lipi Green) | Brightness in cells ([3]; summary grade, Table 3) | Photostability [4] | intracellular retention property [5, 6] | intracellular retention property ([5]; summary grade, Table 3) | Selectivity for lipid droplets ([3]; summary grade, Table 3)
1 | CCN(CC)c1ccc2cc3cc(-c4nc5ccccc5o4)c(=O)oc3cc2c1 [PC6O, 3-(Benzo[d]oxazol-2-yl)-8-(diethylamino)-2H-benzo[g]chromen-2-one] | 0.86 | 460 nm | 530 nm | 0.80 | 478 nm | 613 nm | 2.83 ns | 3.70 ns | – | – | – | – | – | – | –
2 | CCN(CC)c1ccc2nc3c4ccccc4c(=O)cc-3oc2c1 [Nile Red] | – | – | – | – | – | – | – | – | low lipid droplet selectivity | higher fluorescence intensities | ◯ | Δ | remarkable decreases in the fluorescence intensity | Δ | –
3 | CC1=CC(C)=[N+]2C1=C(C)c1c(C)cc(C)n1[B-]2(F)F [BODIPY493/503] | – | – | – | – | – | – | – | – | – | – | Δ | – | remarkable decreases in the fluorescence intensity | – | ◯
4 | CCN(CC)c1ccc2cc3cc(-c4nc5ccccc5[nH]4)c(=O)oc3cc2c1 [PC6NH, 3-(1H-Benzo[d]imidazol-2-yl)-8-(diethylamino)-2H-benzo[g]chromen-2-one] | 0.89 | 458 nm | 523 nm | 0.82 | 477 nm | 604 nm | 2.79 ns | 3.78 ns | – | – | – | – | – | – | –
5 | CCN(CC)c1ccc2cc3cc(-c4nc5ccccc5n4C)c(=O)oc3cc2c1 [PC6NMe, 8-(Diethylamino)-3-(1-methyl-1H-benzo[d]imidazol-2-yl)-2H-benzo[g]chromen-2-one] | 0.67 | 438 nm | 512 nm | 0.77 | 449 nm | 590 nm | 3.53 ns | 4.08 ns | – | – | – | – | – | – | –
